Test results reported in patent publication US20190016686A1, “SALTS OF COMPOUNDS HAVING A BENZIMIDAZOLIC STRUCTURE, USES AND PROCESS FOR THE PREPARATION THEREOF” (ISTITUTO SUPERIORE DI SANITÀ, priority 2015, published 2019).
Values after ≈ are worked out from the molar mass of the structure shown. Where two headings read alike, the source gives them in different places.

Key:
[1] = test system: cell lines of glioblastoma multiforme; details: published results; cited from earlier work
[2] = test system: cell lines of ovarian carcinoma; details: published results; cited from earlier work
[3] = solubility in solvents (ethanol, methanol, water, n-hexane); format: physicochemical; details: salt of the invention
[4] = cited from earlier work
[5] = literature value (J Pharm Sci 94(5), 2005)

Question: With `COC(=O)Nc1nc2ccc(C(=O)c3ccccc3)cc2[nH]1` [MBZ, mebendazole] as the compound, how does the cytotoxicity [1] read?
Answer: demonstrated cytotoxicity

Question: And the cytotoxicity [2]?
Answer: demonstrated cytotoxicity

Question: What does the source list for `CCC[S+]([O-])c1ccc2[n-]c(NC(=O)OC)nc2c1.[Na+]` (centres unmarked) [ABZ-SO—Na]?
Answer: solubility in ethanol ([3]; ethanol): about 30 mg mL^−1; solubility in methanol ([3]; methanol): about 30 mg mL^−1

Question: Which results are given for `CCC[S+]([O-])c1ccc2[nH]c(NC(=O)OC)nc2c1` (centres unmarked) [ABZ-SO, Albendazole sulphoxide]?
Answer: solubility in ethanol [4, 5]: 1.36 mg/mL (≈ 4830 µM); solubility in ethanol ([4]; non-salified sulphoxide, stated as known): circa 1 mg mL^−1; solubility in methanol ([4]; methanol, in words): slightly soluble; solubility in n-hexane ([4]; n-hexane, in words): practically insoluble; solubility in water ([4]; in words): practically insoluble; solubility in water ([4]; in words, listed as RBZ): poorly soluble; solubility in water [4, 5]: 0.062 mg/mL (≈ 220 µM)
